Laboratory results from patent publication US4740233A, “Substituted 1,2,4-triazolo[1,5-a]-pyrimidine-2-sulfonamides and compositions and methods of controlling undesired vegetation and suppressing the nitrification of ammonium nitrogen in soil” (The Dow Chemical Company, priority 1986, dated 1988).

Legend:
velvetleaf = experiment: Preemergent control of plant species; format: in vivo, Abutilon theophrasti; details: Abutilon theophrasti, pre-emergence, 336 h; 0.25 lb/acre; read-out: percent preemergent control
How it was run: (§1)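 Seeds planted in good agricultural soil beds; active ingredients then applied to the bed surface as aqueous emulsion at listed rates. Beds kept two weeks in greenhouse with watering. Control scored against water-treated beds.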

rape = experiment: Preemergent control of plant species; format: in vivo, Brassica napus; details: Brassica napus, pre-emergence, 336 h; 0.25 lb/acre; read-out: percent preemergent control
How it was run: as §1

cotton = experiment: Preemergent control of plant species; format: in vivo, Gossypium spp.; details: Gossypium hirsutum, pre-emergence, 336 h; 0.25 lb/acre; read-out: percent preemergent control
How it was run: as §1

rice [1] = experiment: Preemergent control of plant species; format: in vivo, Oryza sativa; details: Oryza sativa, pre-emergence, 336 h; 0.25 lb/acre; read-out: percent preemergent control
How it was run: as §1

sprangletop = experiment: Control of aquatic plant species (paddy water); format: in vivo, Leptochloa filiformis; details: Leptochloa filiformis, 216 h, nine days, read-out: Percent control; for pest or weed control at 1000 g/ha: 1.0 Kg/Ha
How it was run: (§2)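 Percent control is scored nine days after treatment. Plants go into about 2 inches of soil at the 1-2 inch stage and are flooded to about 1 inch, then test compound in acetone concentrate is injected into the standing water at a volume chosen for the desired concentration.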

crabgrass = experiment: Preemergent control of plant species; format: in vivo, Digitaria spp.; details: Digitaria sanguinalis, pre-emergence, 336 h; 0.25 lb/acre; read-out: percent preemergent control
How it was run: as §1

yellow foxtail = experiment: Preemergent control of plant species; format: in vivo, Setaria lutescens; details: Setaria, pre-emergence, 336 h; 0.25 lb/acre; read-out: percent preemergent control
How it was run: as §1

johnson grass = experiment: Preemergent control of plant species; format: in vivo, Sorghum halepense; details: Sorghum halepense, pre-emergence, 336 h; 0.25 lb/acre; read-out: percent preemergent control
How it was run: as §1

barnyardgrass [2] = experiment: Preemergent control of plant species; format: in vivo, Echinochloa crusgalli; details: Echinochloa crus-galli, pre-emergence, 336 h; 0.25 lb/acre; read-out: percent preemergent control
How it was run: as §1

corn = experiment: Preemergent control of plant species; format: in vivo, Zea mays; details: Zea mays, pre-emergence, 336 h; 0.25 lb/acre; read-out: percent preemergent control
How it was run: as §1

wheat = experiment: Preemergent control of plant species; format: in vivo, Triticum aestivum; details: Triticum aestivum, pre-emergence, 336 h; 0.25 lb/acre; read-out: percent preemergent control
How it was run: as §1

sugar beet = experiment: Preemergent control of plant species; format: in vivo, Beta saccharifera; details: Beta vulgaris, pre-emergence, 336 h; 0.25 lb/acre; read-out: percent preemergent control
How it was run: as §1

barnyardgrass [3] = experiment: Control of aquatic plant species (paddy water); format: in vivo, Echinochloa crusgalli; details: Echinochloa crus-galli, 216 h, nine days, read-out: Percent control; for pest or weed control at 1000 g/ha: 1.0 Kg/Ha
Method: In testing for such utility, the plant species to be tested were transplanted into 16 oz. containers into about 2 inches of soil when they were in the 1-2 inch stage and then flooded to a depth of about 1 inch. An acetone concentrate of the chemical to be tested was then injected into the paddy water, the volume injected being varied as desired to provide the desired concentration. Percent control was evaluated nine days after application.

wild oats = experiment: Preemergent control of plant species; format: in vivo; details: Avena fatua, pre-emergence, 336 h; 0.25 lb/acre; read-out: percent preemergent control
How it was run: as §1

rice [4] = experiment: Control of aquatic plant species (paddy water); format: in vivo, Oryza sativa; details: Oryza sativa, 216 h, nine days, read-out: Percent control; for pest or weed control at 1000 g/ha: 1.0 Kg/Ha
How it was run: as §2

yellow nutsedge [5] = experiment: Control of aquatic plant species (paddy water); format: in vivo, Cyperus esculentus; details: Cyperus, 216 h, nine days, read-out: Percent control; for pest or weed control at 1000 g/ha: 1.0 Kg/Ha
How it was run: as §2

jimsonweed = experiment: Preemergent control of plant species; format: in vivo, Datura stramonium; details: Datura stramonium, pre-emergence, 336 h; 0.25 lb/acre; read-out: percent preemergent control
How it was run: as §1

soybean = experiment: Preemergent control of plant species; format: in vivo, Glycine max.; details: Glycine max, pre-emergence, 336 h; 0.25 lb/acre; read-out: percent preemergent control
How it was run: as §1

sorghum = experiment: Preemergent control of plant species; format: in vivo, Sorghum vulgare; details: Sorghum, pre-emergence, 336 h; 0.25 lb/acre; read-out: percent preemergent control
How it was run: as §1

yellow nutsedge [6] = experiment: Preemergent control of plant species; format: in vivo, Cyperus esculentus; details: Cyperus, pre-emergence, 336 h; 0.25 lb/acre; read-out: percent preemergent control
How it was run: as §1

[7] = test system: nitrification of ammonium nitrogen; experiment: Suppression of nitrification of ammonium nitrogen in soil; details: 27° C.
How it was run: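 Value is % NH4-N remaining after a two-week, 27° C incubation of treated soil held at 1/3 bar tension moisture. Nitrate was measured with an ion-selective electrode after extraction with ammonium sulfate solution and 10 min shaking.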

pigweed = experiment: Preemergent control of plant species; format: in vivo, Amaranthus spp.; details: Amaranthus retroflexus, pre-emergence, 336 h; 0.25 lb/acre; read-out: percent preemergent control
How it was run: as §1

annual morning glory = experiment: Preemergent control of plant species; format: in vivo, Ipomoea spp.; details: Ipomoea, pre-emergence, 336 h; 0.25 lb/acre; read-out: percent preemergent control
How it was run: as §1

Compound	pest or weed control at 280.212 g/ha (velvetleaf) [%]	plant injury at 280.212 g/ha (rape) [%]	plant injury at 280.212 g/ha (cotton) [%]	plant injury at 280.212 g/ha (rice [1]) [%]	pest or weed control at 280.212 g/ha (crabgrass) [%]	pest or weed control at 280.212 g/ha (yellow foxtail) [%]	pest or weed control at 280.212 g/ha (johnson grass) [%]	pest or weed control at 280.212 g/ha (barnyardgrass [2]) [%]	plant injury at 280.212 g/ha (corn) [%]	plant injury at 280.212 g/ha (wheat) [%]	plant injury at 280.212 g/ha (sugar beet) [%]	pest or weed control at 280.212 g/ha (wild oats) [%]	pest or weed control at 280.212 g/ha (jimsonweed) [%]	plant injury at 280.212 g/ha (soybean) [%]	plant injury at 280.212 g/ha (sorghum) [%]	pest or weed control at 280.212 g/ha (yellow nutsedge [6]) [%]	% NH4-N Remaining After 2 Weeks Incubation ([7]; 1 ppm) [%]	pest or weed control at 280.212 g/ha (pigweed) [%]	pest or weed control at 280.212 g/ha (annual morning glory) [%]	% NH4-N Remaining After 2 Weeks Incubation ([7]; 0.06 ppm) [%]	further results
COC(=O)c1cccc(C)c1NS(=O)(=O)c1nc2nc(C)cc(C)n2n1 [Compound 50]	93	95	80	97	25	95	95	95	99	100	100	60	100	95	100	99	73	100	80	–	pest or weed control at 125 g/ha (sprangletop; 0.125 Kg/Ha): 97%; pest or weed control at 125 g/ha (barnyardgrass [3]; 0.125 Kg/Ha): 97%; pest or weed control at 125 g/ha (rice [4]; 0.125 Kg/Ha): 97%; pest or weed control at 125 g/ha (yellow nutsedge [5]; 0.125 Kg/Ha): 97%; % NH4-N Remaining After 2 Weeks Incubation ([7]; 0.01 ppm): 0%; % NH4-N Remaining After 2 Weeks Incubation ([7]; 0.1 ppm): 38%; % NH4-N Remaining After 2 Weeks Incubation ([7]; 10 ppm): 92%
Cc1cc(C)n2nc(S(=O)(=O)Nc3c(F)cccc3C(=O)OC(C)C)nc2n1 [Compound 51]	95	95	93	80	95	97	95	97	97	97	95	100	95	90	97	100	78	100	80	33	pest or weed control at 31 g/ha (sprangletop; 0.031 Kg/Ha): 0%; pest or weed control at 1000 g/ha (sprangletop): 70%; pest or weed control at 31 g/ha (barnyardgrass [3]; 0.031 Kg/Ha): 35%; pest or weed control at 1000 g/ha (barnyardgrass [3]): 97%; pest or weed control at 31 g/ha (rice [4]; 0.031 Kg/Ha): 0%; pest or weed control at 1000 g/ha (rice [4]): 95%; pest or weed control at 31 g/ha (yellow nutsedge [5]; 0.031 Kg/Ha): 93%; pest or weed control at 1000 g/ha (yellow nutsedge [5]): 97%; % NH4-N Remaining After 2 Weeks Incubation ([7]; 0.25 ppm): 58%; % NH4-N Remaining After 2 Weeks Incubation ([7]; 4 ppm): 87%
Cc1cc(C)n2nc(S(=O)(=O)Nc3ccccc3C(F)(F)F)nc2n1 [Compound 13, 5,7-Dimethyl-N-(2-trifluoromethylphenyl)-1,2,4-triazolo[1,5-a]pyrimidine-2-sulfonamide]	95	98	95	95	80	90	95	95	80	20	98	10	70	95	98	98	89	95	90	73	pest or weed control at 250 g/ha (sprangletop; 0.25 Kg/Ha): 10%; pest or weed control at 250 g/ha (barnyardgrass [3]; 0.25 Kg/Ha): 93%; pest or weed control at 250 g/ha (rice [4]; 0.25 Kg/Ha): 97%; pest or weed control at 250 g/ha (yellow nutsedge [5]; 0.25 Kg/Ha): 93%; % NH4-N Remaining After 2 Weeks Incubation ([7]; 0.125 ppm): 78%; % NH4-N Remaining After 2 Weeks Incubation ([7]; 0.25 ppm): 81%; % NH4-N Remaining After 2 Weeks Incubation ([7]; 0.5 ppm): 85%
Cc1cc(C)n2nc(S(=O)(=O)Nc3ccccc3Br)nc2n1 [Compound 41]	10	80	40	0	10	30	35	80	0	0	80	0	0	25	20	70	87	0	10	23	pest or weed control at 1000 g/ha (sprangletop): 95%; pest or weed control at 1000 g/ha (barnyardgrass [3]): 99%; pest or weed control at 1000 g/ha (rice [4]): 97%; pest or weed control at 1000 g/ha (yellow nutsedge [5]): 80%; % NH4-N Remaining After 2 Weeks Incubation ([7]; 0.1 ppm): 54%; % NH4-N Remaining After 2 Weeks Incubation ([7]; 10 ppm): 100%
